# Where “and” joins values, the source holds several entries; their conditions need not be identical. Identical values can stand only once.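 These data come from cells grown in 96-well plates and exposed to compound for 48 hours at five concentrations. GI50 is the concentration that inhibits growth by half. At the TGI there is no net growth.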
# Columns and labels:
# Assay in all cases: NCI tumour cell line growth inhibition, 48 h
# 786-0 renal = system: 786-0 renal
# CCRF-CEM leukemia = system: CCRF-CEM leukemia
# EKVX NSCLC = system: EKVX NSCLC
# IGROV1 ovarian = system: IGROV1 ovarian
# NCI-H522 lung = system: NCI-H522 lung
# SF-268 CNS = system: SF-268 CNS
# SK-OV-3 ovarian = system: SK-OV-3 ovarian
# TK-10 renal = system: TK-10 renal
# UACC-257 melanoma = system: UACC-257 melanoma
# UO-31 renal = system: UO-31 renal
SMILES,TGI (786-0 renal),TGI (CCRF-CEM leukemia),TGI (EKVX NSCLC),TGI (IGROV1 ovarian),TGI (NCI-H522 lung),TGI (SF-268 CNS),TGI (SK-OV-3 ovarian),TGI (TK-10 renal),TGI (UACC-257 melanoma),TGI (UO-31 renal),GI50 (786-0 renal),GI50 (CCRF-CEM leukemia),GI50 (EKVX NSCLC),GI50 (IGROV1 ovarian),GI50 (NCI-H522 lung),GI50 (SF-268 CNS),GI50 (SK-OV-3 ovarian),GI50 (TK-10 renal),GI50 (UACC-257 melanoma),GI50 (UO-31 renal)
CC[N+]1(C)CCC(O)(c2ccccc2)C(C(=O)c2ccccc2)C1 (stereo unspecified),18.8 µM,6.89 µM,43.4 µM,38.6 µM,3.29 µM,59.8 µM,32.1 µM,31.4 µM,32.7 µM,33.6 µM,,,,,,,,,,
NCCCC1NC(=O)/C(=C(O)/C=C/C2CCC[C@@H]2CC2SCCS2)C1=O (stereo partly specified),> 100 µM,> 100 µM,> 100 µM,> 100 µM,98.4 µM,> 100 µM,> 100 µM,> 100 µM,> 100 µM,> 100 µM,,,,,,,,,,
CCc1ccc(Nc2cc(=O)[nH]c(=S)n2C)cc1,> 100 µM,> 100 µM,> 100 µM,> 100 µM,> 100 µM,> 100 µM,> 100 µM,> 100 µM,> 100 µM,> 100 µM,,,,,,,,,,
CCCCCCCCCCCC[n+]1ccccc1,3.42 µM,8.55 µM,9.17 µM,2.85 µM,2.84 µM,5.67 µM,6.35 µM,2.67 µM,3.97 µM,11 µM,1.48 µM,1.34 µM,0.936 µM,1 µM,0.665 µM,1.58 µM,1.73 µM,0.941 µM,1.23 µM,1.72 µM
C/C(=N\NC(=O)c1ccccc1O)c1cccc(/C(C)=N/NC(=O)c2ccccc2O)n1,45.6 µM and 18.4 µM,48.8 µM,> 100 µM,43.8 µM and > 100 µM,27.8 µM and > 100 µM,56.5 µM and > 100 µM,36.3 µM and > 100 µM,> 80.6 µM,> 100 µM,52.5 µM and > 57.4 µM,0.616 µM,0.693 µM,0.317 µM,2.4 µM and 15.4 µM,4.75 µM and 0.856 µM,0.28 µM,1.31 µM,0.614 µM,16.5 µM and > 100 µM,
Nc1ncnc2c(C3OC(CO)C(O)C3O)[nH]nc12 (stereo unspecified),5.65 µM,73.9 µM,,8.6 µM,3.74 µM and 6.29 µM,14 µM and 35.9 µM,0.241 µM and 0.6 µM,2.48 µM,10.2 µM and 26.6 µM,,0.0544 µM,4.68 µM and 2.77 µM,1.6 µM,,0.239 µM,0.204 µM and 0.452 µM,0.0323 µM and 0.0738 µM,0.0778 µM,1.45 µM and 2.1 µM,0.0619 µM
COc1ccc2nc(NC(=O)C(=O)C(C(=O)c3ccccc3-c3ccccc3)C3OC(=O)c4ccccc43)sc2c1 (stereo unspecified),31.7 µM,> 100 µM,45.9 µM,71.7 µM,23.8 µM,63.2 µM,88 µM,48.9 µM,> 100 µM,47.4 µM,,,,,,,,,,
CCC[CH2][Ge]([CH2]CCC)([CH2]CCC)[O]C(=O)C(OC)c1ccccc1 (stereo unspecified),> 100 µM,> 100 µM,> 100 µM,> 100 µM,> 74.9 µM,> 100 µM,> 100 µM,> 100 µM,> 100 µM,> 100 µM,47.2 µM,2.09 µM,16.4 µM,> 74.7 µM,16.3 µM,40.9 µM,> 94.2 µM,> 91.9 µM,16.7 µM,> 41.7 µM
Nc1nc(N)c2c(ccc3nccc32)[nH]1,> 100 µM,> 100 µM,> 100 µM,9.35 µM,24.3 µM,56.2 µM,> 81.5 µM,> 86.8 µM,17.9 µM,31.1 µM,7.01 µM,1.57 µM,2.22 µM,2.34 µM,4.88 µM,2.11 µM,18.4 µM,17.4 µM,1.54 µM,4.14 µM
C[C@H]1[C@H](C)CC[C@]2(C(=O)O)CC[C@]3(C)C(=CC[C@@H]4[C@@]5(C)CC[C@H](OC(=O)/C=C/c6ccc(O)cc6)C(C)(C)[C@@H]5CC[C@]43C)[C@H]12,9.53 µM,> 40.4 µM,18.6 µM,45.8 µM,23 µM,12 µM,20.3 µM,17.5 µM,51.5 µM,29.8 µM,3.57 µM,5 µM,3.88 µM,8.39 µM,9.45 µM,3.23 µM,5.25 µM,3.01 µM,12.1 µM,3.59 µM
COc1cc(Cn2ccc3c2-c2oncc2CC3)cc(OC)c1,37.1 µM,> 100 µM,56.1 µM,> 100 µM,40.4 µM,> 100 µM,> 100 µM,> 100 µM,91.1 µM,41.6 µM,6.36 µM,3.74 µM,4.3 µM,7.44 µM,3.57 µM,10.1 µM,4.79 µM,8.04 µM,6.72 µM,6.09 µM
CN(C)CC/C(=N\Nc1ccc(Cl)c(Cl)c1)c1ccccc1,3.37 µM,6.18 µM,3.93 µM,5.68 µM,4.28 µM,3.48 µM,14.1 µM,3.68 µM,9.61 µM,3.25 µM,,,,,,,,,,
COc1c(NC(=O)CC(C)=O)[c]([Hg][O]C(C)=O)c(OC)c(Cl)[c]1[Hg][O]C(C)=O,18.8 µM,28.5 µM,41.4 µM,28.3 µM,7.04 µM,28.5 µM,31.1 µM,25.3 µM,26.5 µM,29.7 µM,6.47 µM,4.8 µM,22.3 µM,11.7 µM,2.07 µM,12.8 µM,17.2 µM,12.8 µM,13.7 µM,16.2 µM
Cc1ccc(NC(=O)CC/C(CC(=O)c2ccc(F)cc2)=N\NC(=O)C(=O)NN)cc1C,> 100 µM,> 100 µM,> 100 µM,> 100 µM,> 100 µM,> 100 µM,> 100 µM,> 100 µM,> 100 µM,> 100 µM,,,,,,,,,,
CCN(CC)CCCOc1cc(O)c2c(=O)cc(-c3ccccc3)oc2c1,24.1 µM,26.8 µM,26.4 µM,22.1 µM,26.7 µM,22.9 µM,28 µM,25.3 µM,12.5 µM,15.9 µM,11.3 µM,10.4 µM,13.2 µM,6.17 µM,12.1 µM,10.1 µM,14.3 µM,10.3 µM,3.4 µM,3.74 µM

# — PubChem BioAssay (NCI)
